Measurements taken from ChEMBL document CHEMBL1201862, “PubChem BioAssay data set” (2004).
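1) Cells in 96-well plates. 2) Compound, 48 h, 5 concentrations. 3) Linear interpolation between surrounding doses. 4) Unreached endpoint = highest concentration. At the GI50, growth is halved.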 Activity calls are given as the source filed them. Rule as the data show it: active = GI50 up to about 1.1 µM and inactive = higher.

How the values were obtained:
Assay in all cases: growth of human tumour cells (NCI), 48 h
SNB-75 = system: SNB-75
SF-268 = system: SF-268
SN12C = system: SN12C
HCT-15 = system: HCT-15
COLO 205 = system: COLO 205
HCT-116 = system: HCT-116
HOP-62 = system: HOP-62
NCI/ADR-RES = system: NCI/ADR-RES
SF-295 = system: SF-295
SNB-19 = system: SNB-19
TK-10 = system: TK-10
U-251 = system: U-251
HOP-92 = system: HOP-92
MCF7 = system: MCF7
RPMI-8226 = system: RPMI-8226
SK-MEL-28 = system: SK-MEL-28
OVCAR-5 = system: OVCAR-5
SK-OV-3 = system: SK-OV-3
786-0 = system: 786-0
CCRF-CEM = system: CCRF-CEM

In the case of `N#CC1(Nc2ccc(-c3ccc(NC4(C#N)CCCC4)cc3)cc2)CCCC1`, the GI50 (SNB-75) was > 100 µM (inactive), the GI50 (SF-268) was > 100 µM (inactive) and the GI50 (SN12C) was > 100 µM (inactive). For the same compound, the GI50 (HCT-15) was over 100 µM, the GI50 (COLO 205) was > 100 µM (inactive) and the GI50 (HCT-116) was > 100 µM (inactive). For the same compound, the GI50 (HOP-62) was > 100 µM (inactive), the GI50 (NCI/ADR-RES) was > 100 µM (inactive) and the GI50 (SF-295) was > 100 µM (inactive). The GI50 (SNB-19) was > 100 µM (inactive), the GI50 (TK-10) was > 100 µM (inactive) and the GI50 (U-251) was > 100 µM (inactive). The GI50 (HOP-92) was 39.3 µM (inactive), the GI50 (MCF7) was > 100 µM (inactive) and the GI50 (RPMI-8226) was > 100 µM (inactive). The GI50 (SK-MEL-28) was > 100 µM (inactive), the GI50 (OVCAR-5) was > 100 µM (inactive) and the GI50 (SK-OV-3) was > 100 µM (inactive). For the same compound, the GI50 (786-0) was > 100 µM (inactive) and the GI50 (CCRF-CEM) was 0.0104 µM (active).
For `Cc1ccc(C)n1-c1ccccc1C1C=CN(C(=O)OC(C)(C)C)C=C1`, the GI50 (SNB-75) was 13.5 µM (inactive), the GI50 (SF-268) was 33.6 µM (inactive) and the GI50 (SN12C) was 33.6 µM (inactive). The GI50 (HCT-15) was 20.6 µM, the GI50 (COLO 205) was 17.2 µM (inactive) and the GI50 (HCT-116) was 15 µM (inactive). The GI50 (HOP-62) was 31.4 µM (inactive), the GI50 (NCI/ADR-RES) was 27.6 µM (inactive) and the GI50 (SF-295) was 30 µM (inactive). The GI50 (SNB-19) was 47.6 µM (inactive), the GI50 (TK-10) was 67.3 µM (inactive) and the GI50 (U-251) was 26.3 µM (inactive). The GI50 (HOP-92) was 37.6 µM (inactive), the GI50 (MCF7) was 17.4 µM (inactive) and the GI50 (RPMI-8226) was 20.4 µM (inactive). For the same compound, the GI50 (SK-MEL-28) was 44.9 µM (inactive), the GI50 (OVCAR-5) was 29.6 µM (inactive) and the GI50 (SK-OV-3) was > 100 µM (inactive). For the same compound, the GI50 (786-0) was 31.8 µM (inactive) and the GI50 (CCRF-CEM) was 35.3 µM (inactive).
`O=C(NCCCNCCCCNCCCNC(=O)c1cc(-c2ccccc2)nc2ccccc12)c1cc(-c2ccccc2)nc2ccccc12` was tested, and the GI50 (SNB-75) was 1.85 µM (inactive), the GI50 (SF-268) was 1.71 µM (inactive) and the GI50 (SN12C) was 2.23 µM (inactive). The GI50 (HCT-15) was 20.1 µM, the GI50 (COLO 205) was 1.91 µM (inactive) and the GI50 (HCT-116) was 3.09 µM (inactive). For the same compound, the GI50 (HOP-62) was 2.36 µM (inactive), the GI50 (NCI/ADR-RES) was 28.4 µM (inactive) and the GI50 (SF-295) was 3.26 µM (inactive). For the same compound, the GI50 (SNB-19) was 1.67 µM (inactive), the GI50 (TK-10) was 8.07 µM (inactive) and the GI50 (U-251) was 1.66 µM (inactive). The GI50 (HOP-92) was 1.48 µM (inactive), the GI50 (MCF7) was 2.1 µM (inactive) and the GI50 (RPMI-8226) was 2.16 µM (inactive). For the same compound, the GI50 (SK-MEL-28) was 1.87 µM (inactive), the GI50 (OVCAR-5) was 2.05 µM (inactive) and the GI50 (SK-OV-3) was 2.27 µM (inactive). For the same compound, the GI50 (786-0) was 1.69 µM (inactive) and the GI50 (CCRF-CEM) was 1.88 µM (inactive).
In the case of `Cc1cccc2c(N)c3cccc(C(=O)NCCN4CCOCC4)c3nc12`, the GI50 (SNB-75) was 0.13 µM (active), the GI50 (SF-268) was 0.0603 µM (active) and the GI50 (SN12C) was 0.364 µM (active). The GI50 (HCT-15) was 0.461 µM, the GI50 (COLO 205) was 0.294 µM (active) and the GI50 (HCT-116) was 0.0889 µM (active). For the same compound, the GI50 (HOP-62) was 0.363 µM (active), the GI50 (NCI/ADR-RES) was 4.35 µM (inactive) and the GI50 (SF-295) was 0.318 µM (active). The GI50 (SNB-19) was 0.236 µM (active), the GI50 (TK-10) was 2.1 µM (inactive) and the GI50 (U-251) was 0.531 µM (active). The GI50 (HOP-92) was 3.48 µM (inactive), the GI50 (MCF7) was 0.265 µM (active) and the GI50 (RPMI-8226) was 0.493 µM (active). For the same compound, the GI50 (SK-MEL-28) was 1.45 µM (inactive), the GI50 (OVCAR-5) was 0.627 µM (active) and the GI50 (SK-OV-3) was 1.05 µM (active). The GI50 (786-0) was 0.218 µM (active) and the GI50 (CCRF-CEM) was 0.248 µM (active).
`CCCC[C@H]1C(=O)O[C@H](C)[C@H](NC(=O)c2cccc(NC=O)c2O)C(=O)O[C@@H](C)[C@@H]1OC(=O)CC(C)C` [ANTIMYCIN A3] was tested, and the GI50 (SNB-75) was 21.4 µM (inactive), the GI50 (SF-268) was 6.56 µM (inactive) and the GI50 (SN12C) was 14.2 µM (inactive). The GI50 (HCT-15) was under 0.01 µM, the GI50 (COLO 205) was 3.34 µM (inactive) and the GI50 (HCT-116) was < 0.01 µM (active). For the same compound, the GI50 (HOP-62) was 8.41 µM (inactive), the GI50 (NCI/ADR-RES) was 5.32 µM (inactive) and the GI50 (SF-295) was < 0.0421 µM (active). For the same compound, the GI50 (SNB-19) was 2.91 µM (inactive), the GI50 (TK-10) was 6.79 µM (inactive) and the GI50 (U-251) was 0.149 µM (active). For the same compound, the GI50 (HOP-92) was 5.36 µM (inactive), the GI50 (MCF7) was 0.0442 µM (active) and the GI50 (RPMI-8226) was 0.109 µM (active). For the same compound, the GI50 (SK-MEL-28) was 6.73 µM (inactive), the GI50 (OVCAR-5) was 17 µM (inactive) and the GI50 (SK-OV-3) was 12 µM (inactive). The GI50 (786-0) was 9.08 µM (inactive) and the GI50 (CCRF-CEM) was < 0.0229 µM (active).
